Laboratory results: article PMC7982615, “Phase 1 study of telisotuzumab vedotin in Japanese patients with advanced solid tumors” (Cancer Medicine, 2021)
Like-named read-outs stand apart in the source and are kept apart here. Marks after values point to notes of the source that are not given here. Non-standard residues stand in square brackets, D forms with d. Residues, ends and D or L forms follow the SMILES beside them. *: point of attachment. Dolaproine = CO[C@@H]([C@@H]1CCCN1)[C@@H](C)C(=O)O; Dil = CC[C@H](C)[C@H](NC)[C@@H](CC(=O)O)OC; X1 = C[C@@H](N*)[C@@H](O)c1ccccc1; NMeV = CN[C@H](C(=O)O)C(C)C

What was measured:
[1] = Pharmacokinetics of teliso‐v conjugate and MMAE, noncompartmental; assay type: in vivo, human; details: for AUCtau, MMAE / Cmax, MMAE: geometric mean (%CV); for t1/2, MMAE: harmonic mean (min-max); for Tmax, MMAE: median (min-max)
Procedure: PK samples were also collected on cycles 2 and 4 predose and approximately 30 minutes after the end of infusion on day 1. PK parameters such as peak concentration (Cmax), time to peak concentration, area under the concentration‐time curve (AUC), and terminal half‐life (t1/2) were determined using noncompartmental methods.

[2] = tested on: MET exon 14‐mutated NSCLC; design: method as in earlier work; details: cited from earlier work
[3] = tested on: CD30‐positive Hodgkin lymphoma or systemic anaplastic large cell lymphoma; design: method as in PMID 24814862; details: US and Japanese patients; cited from earlier work
[4] = cycle 1, after teliso-v 2.4 mg/kg IV, n = 3
[5] = cycle 1, after teliso-v 2.7 mg/kg IV, n = 6

CC[C@H](C)[C@@H]([C@@H](CC(=O)N1CCC[C@H]1[C@H](OC)[C@@H](C)C(=O)N[C@H](C)[C@@H](O)c1ccccc1)OC)N(C)C(=O)[C@@H](NC(=O)[C@@H](NC)C(C)C)C(C)C [MMAE, monomethyl auristatin E] (H-[NMeV]V[Dil][Dolaproine]-X1)
t1/2 ([1]; N = 9, both dose levels): 96 to 140 h | AUCtau, MMAE [1, 4]: 535 (7) ng*h/mL | Cmax, MMAE [1, 4]: 1.69 (10) ng/mL | t1/2, MMAE [1, 4]: 5.80 (4.5–7.8) days | Tmax, MMAE [1, 4]: 168.5 (72.5–168.5) h | t1/2, MMAE ([1]; cycle 1, after teliso-v 2.7 mg/kg IV, N = 4): 4.01 (3–5.6)^c days | AUCtau, MMAE [1, 5]: 764 (78) ng*h/mL | Cmax, MMAE [1, 5]: 2.80 (77) ng/mL | Tmax, MMAE [1, 5]: 168.5 (72.5–168.5) h | Plasma Cmax, preliminary geometric mean ([1]; first dose of teliso‐v, cycle 1, across 2.4 and 2.7 mg/kg): 1.69 to 2.80 ng/mL | Accumulation in cycle 3 ([1]; multiple dosing Q3 W): 1.1–1.2 fold

CNC(=O)c1ccc(-c2cnc3ncc(Cc4ccc5ncccc5c4)n3n2)cc1F [capmatinib]
ORR ([2]; one to two prior lines of treatment): 39.1% | ORR ([2]; treatment‐naive patients): 71.4%

brentuximab vedotin
Ethnic differences in PK [3]: no remarkable ethnic differences in PK were found
